Consider one compound from US11571416B2, “Amodiaquine analogs and methods of uses thereof” (priority 2017, dated 2023).

For data set [1], the system named is EBOV-GFP (recombinant Ebolavirus encoding a GFP reporter gene). Nature of the data set: microbe, parasite or virus in culture. Conditions: read-out: IC50. The format is cell-based.
Data set [2] relates to Ebolavirus. Conditions: human, in vivo; cited from earlier work.
For data set [3], the system named is Ebolavirus. The settings on record: cited from earlier work.
In data set [4] the test system is Huh7 cells. Put plainly: Cytotoxicity, CellTiter-Glo Luminescent Cell Viability Assay. Conditions: Table 2, 24 h incubation. In general terms: In ATP-based viability assays light output follows the ATP content of the culture.

One may read the pIC50 as the negative decadic logarithm of the IC50, by convention in mol/L. What is called CC50 is the concentration at which the toxic effect on the cells reaches its halfway point.

pIC50: −log10 of the molar value.

In the case of `CCN(CC)Cc1cc(Nc2ccnc3cc(Cl)ccc23)ccc1O` [Amodiaquine], the pIC50 in data set [1] is 5.67. Also, the mortality rate in data set [2] was 50%. Besides, the “anti-Ebolavirus activity (previous reports)” value in data set [3] was “potent anti-Ebolavirus activity”. The same compound had a CC50 in data set [4] of 79 µM.
